Results from ChEMBL document CHEMBL5154747, “Discovery of new carbonic anhydrase IX inhibitors as anticancer agents by toning the hydrophobic and hydrophilic rims of the active site to encounter the dual-tail approach” (Eur J Med Chem, 2022).

What was measured:
[1] = test system: UACC-62; test: Anticancer activity against human UACC-62 cells assessed as cell growth inhibition incubated for 48 hrs by SRB assay; assay type: functional
[2] = test system: UACC-257; test: Anticancer activity against human UACC-257 cells assessed as cell growth inhibition incubated for 48 hrs by SRB assay; assay type: functional
[3] = test system: PC-3; test: Anticancer activity against human PC-3 cells assessed as cell growth inhibition incubated for 48 hrs by SRB assay; assay type: functional
[4] = test system: HCC 2998; test: Anticancer activity against human HCC 2998 cells assessed as cell growth inhibition incubated for 48 hrs by SRB assay; assay type: functional
[5] = test system: A549; test: Anticancer activity against human A549 cells assessed as cell growth inhibition incubated for 48 hrs by SRB assay; assay type: functional
[6] = test system: NCI-H23; test: Anticancer activity against human NCI-H23 cells assessed as cell growth inhibition incubated for 48 hrs by SRB assay; assay type: functional
[7] = test system: RPMI-8226; test: Anticancer activity against human RPMI-8226 cells assessed as cell growth inhibition incubated for 48 hrs by SRB assay; assay type: functional
[8] = test system: HCT-116; test: Anticancer activity against human HCT-116 cells assessed as cell growth inhibition incubated for 48 hrs by SRB assay; assay type: functional
[9] = test system: SW-620; test: Anticancer activity against human SW-620 cells assessed as cell growth inhibition incubated for 48 hrs by SRB assay; assay type: functional
[10] = test system: BT-549; test: Anticancer activity against human BT-549 cells assessed as cell growth inhibition incubated for 48 hrs by SRB assay; assay type: functional
[11] = test system: SF-539; test: Anticancer activity against human SF-539 cells assessed as cell growth inhibition incubated for 48 hrs by SRB assay; assay type: functional
[12] = test system: NCI-H460; test: Anticancer activity against human NCI-H460 cells assessed as cell growth inhibition incubated for 48 hrs by SRB assay; assay type: functional
[13] = test system: NCI-H226; test: Anticancer activity against human NCI-H226 cells assessed as cell growth inhibition incubated for 48 hrs by SRB assay; assay type: functional
[14] = test system: OVCAR-5; test: Anticancer activity against human OVCAR-5 cells assessed as cell growth inhibition incubated for 48 hrs by SRB assay; assay type: functional
[15] = test system: IGROV-1; test: Anticancer activity against human IGROV-1 cells assessed as cell growth inhibition incubated for 48 hrs by SRB assay; assay type: functional
[16] = test system: OVCAR-8; test: Anticancer activity against human OVCAR-8 cells assessed as cell growth inhibition incubated for 48 hrs by SRB assay; assay type: functional
[17] = test system: A498; test: Anticancer activity against human A498 cells assessed as cell growth inhibition incubated for 48 hrs by SRB assay; assay type: functional
[18] = test system: SK-MEL-28; test: Anticancer activity against human SK-MEL-28 cells assessed as cell growth inhibition incubated for 48 hrs by SRB assay; assay type: functional
[19] = test system: Hs-578T; test: Anticancer activity against human Hs-578T cells assessed as cell growth inhibition incubated for 48 hrs by SRB assay; assay type: functional
[20] = test system: TK-10; test: Anticancer activity against human TK-10 cells assessed as cell growth inhibition incubated for 48 hrs by SRB assay; assay type: functional
[21] = test system: SNB-75; test: Anticancer activity against human SNB-75 cells assessed as cell growth inhibition incubated for 48 hrs by SRB assay; assay type: functional
[22] = test system: CCRF-CEM; test: Anticancer activity against human CCRF-CEM cells assessed as cell growth inhibition incubated for 48 hrs by SRB assay; assay type: functional
[23] = test system: COLO 205; test: Anticancer activity against human COLO 205 cells assessed as cell growth inhibition incubated for 48 hrs by SRB assay; assay type: functional
[24] = test system: SN12C; test: Anticancer activity against human SN12C cells assessed as cell growth inhibition incubated for 48 hrs by SRB assay; assay type: functional
[25] = test system: MCF7; test: Anticancer activity against human MCF7 cells assessed as cell growth inhibition incubated for 48 hrs by SRB assay; assay type: functional
[26] = test system: NCI-H322M; test: Anticancer activity against human NCI-H322M cells assessed as cell growth inhibition incubated for 48 hrs by SRB assay; assay type: functional
[27] = test system: MDA-MB-468; test: Anticancer activity against human MDA-MB-468 cells assessed as cell growth inhibition incubated for 48 hrs by SRB assay; assay type: functional
[28] = test system: RXF 393; test: Anticancer activity against human RXF 393 cells assessed as cell growth inhibition incubated for 48 hrs by SRB assay; assay type: functional
[29] = test system: SNB-19; test: Anticancer activity against human SNB-19 cells assessed as cell growth inhibition incubated for 48 hrs by SRB assay; assay type: functional
[30] = test system: UO-31; test: Anticancer activity against human UO-31 cells assessed as cell growth inhibition incubated for 48 hrs by SRB assay; assay type: functional
[31] = test system: HL-60(TB); test: Anticancer activity against human HL-60(TB) cells assessed as cell growth inhibition incubated for 48 hrs by SRB assay; assay type: functional
[32] = test system: MOLT-4; test: Anticancer activity against human MOLT-4 cells assessed as cell growth inhibition incubated for 48 hrs by SRB assay; assay type: functional
[33] = test system: SK-MEL-2; test: Anticancer activity against human SK-MEL-2 cells assessed as cell growth inhibition incubated for 48 hrs by SRB assay; assay type: functional
[34] = test system: CAKI-1; test: Anticancer activity against human CAKI-1 cells assessed as cell growth inhibition incubated for 48 hrs by SRB assay; assay type: functional
[35] = test system: M14; test: Anticancer activity against human M14 cells assessed as cell growth inhibition incubated for 48 hrs by SRB assay; assay type: functional
[36] = test system: HOP-62; test: Anticancer activity against human HOP-62 cells assessed as cell growth inhibition incubated for 48 hrs by SRB assay; assay type: functional
[37] = test system: U-251; test: Anticancer activity against human U-251 cells assessed as cell growth inhibition incubated for 48 hrs by SRB assay; assay type: functional
[38] = test system: HOP-92; test: Anticancer activity against human HOP-92 cells assessed as cell growth inhibition incubated for 48 hrs by SRB assay; assay type: functional
[39] = test system: HT-29; test: Anticancer activity against human HT-29 cells assessed as cell growth inhibition incubated for 48 hrs by SRB assay; assay type: functional
[40] = Cytotoxicity against human HEK293 cells assessed as inhibition of cell viability by MTT assay
[41] = read-out: LC50 (the source's name)

## NS(=O)(=O)c1ccc(Nc2nc(N/N=C/c3ccc(C(F)(F)F)cc3)nc(Nc3ccccc3)n2)cc1
[1]
  GI50: 2.35 µM
  LC50: 16.2 µM
[2]
  GI50: 2.42 µM
  LC50: 37.2 µM
[3]
  GI50: 2.8 µM
[3]; [41]
  CC50: 78.5 µM
[4]
  GI50: 2.97 µM
[4]; [41]
  CC50: 46.4 µM
[5]
  GI50: 3.11 µM
  LC50: 87.2 µM
[6]
  GI50: 1.95 µM
[6]; [41]
  CC50: 9.25 µM
[7]
  GI50: 2.77 µM
  LC50 (concentration killing 50% of cells): > 100 µM
[8]
  GI50: 3.1 µM
  LC50 (concentration killing 50% of cells): 64 µM
[9]
  GI50: 3.3 µM
[9]; [41]
  CC50: > 100 µM
[10]
  GI50: 2.79 µM
[10]; [41]
  CC50: 37.2 µM
[11]
  GI50: 1.86 µM
[11]; [41]
  CC50: 9.61 µM
[12]
  GI50: 3.02 µM
[12]; [41]
  CC50: > 100 µM
[13]
  GI50: 2.45 µM
[13]; [41]
  CC50: > 100 µM
[14]
  GI50: 2.96 µM
[14]; [41]
  CC50: 39.9 µM
[15]
  GI50: 2.64 µM
[15]; [41]
  CC50: 53.8 µM
[16]
  GI50: 2.83 µM
  LC50: 35.5 µM
[17]
  GI50: 2.61 µM
[17]; [41]
  CC50: 63.8 µM
[18]
  GI50: 2.44 µM
[18]; [41]
  CC50: 26.3 µM
[19]
  GI50: 3.07 µM
  LC50 (concentration killing 50% of cells): > 100 µM
[20]
  GI50: 3.45 µM
[20]; [41]
  CC50: 33.7 µM
[21]
  GI50: 2.05 µM
  LC50 (concentration killing 50% of cells): 37.5 µM
[22]
  GI50: 3 µM
[22]; [41]
  CC50: > 100 µM
[23]
  GI50: 1.86 µM
[23]; [41]
  CC50: 10.9 µM
[24]
  GI50: 3 µM
  LC50: 86.6 µM
[25]
  GI50: 2.18 µM
  LC50: 64.8 µM
[26]
  GI50: 3.31 µM
[26]; [41]
  CC50: 36.1 µM
[27]
  GI50: 1.73 µM
[27]; [41]
  CC50: 8.63 µM
[28]
  GI50: 1.82 µM
[28]; [41]
  CC50: 35.5 µM
[29]
  GI50: 3.46 µM
[29]; [41]
  CC50: 40.6 µM
[30]
  GI50: 1.88 µM
[30]; [41]
  CC50: 15.7 µM
[31]
  GI50: 3.59 µM
[31]; [41]
  CC50: > 100 µM
[32]
  GI50: 3.06 µM
[32]; [41]
  CC50: > 100 µM
[33]
  GI50: 2.17 µM
[33]; [41]
  CC50: 42.7 µM
[34]
  GI50: 3.05 µM
[34]; [41]
  CC50: 51.9 µM
[35]
  GI50: 2.51 µM
[35]; [41]
  CC50: 63.3 µM
[36]
  GI50: 2.15 µM
[36]; [41]
  CC50: 69.7 µM
[37]
  GI50: 2.69 µM
[37]; [41]
  CC50: 71.4 µM
[38]
  GI50: 2.38 µM
[38]; [41]
  CC50: 39.8 µM
[39]
  GI50: 2.44 µM
[39]; [41]
  CC50: 50.1 µM

## CN(C)c1ccc(/C=N/Nc2nc(Nc3ccccc3)nc(Nc3ccc(S(N)(=O)=O)cc3)n2)cc1
[40]
  IC50: 39.8 µM
